Several values for one entry are separate records, joined by “and”; a condition that tells them apart may be missing. Equal entries are not always repeated. Where two headings read alike, the source gives them in different places.
What was measured:
PBMCs = experiment: Cell viability assay (CCK-8), PBMCs; format: cell-based, human; details: 72 h, PBMCs; for cell vialibity normalized to Vehicle (DMSO): in % (unit assumed)
Description: Buffy coats were ordered from anonymous blood donors at […]. […] Cells were seeded in 96-well plates ranging from 2000 to 15,000 cells per well depending on different cell lines and treated with antibiotics in serial dilutions for 72 h (120 h for the preliminary assays) in a humidified incubator (37 °C, 5% CO2) in 100 μl medium (DMEM with 10% FBS, 2.05 mM L-glutamine (Sigma) for Hek293 and Hela; RPMI-1640 with 10% FBS, 2.05 mM L-glutamine (Sigma), and 55 μM 2-ME (Gibco) for Jurkat T cells and PBMCs). Based on preliminary tests, the number of cells per well was optimized to 2000 for Hela and Hek293, 6000 for Jurkat T cells, and 15,000 for PBMCs. The stocks of antibiotics were prepared by dissolving in DMSO. As control, the same amount of DMSO was added to the non-treated groups. Serial drug dilutions were prepared in the corresponding medium to provide a total of 9 concentrations up to 300 μM for tetracyclines and up to 900 μM for additional bacterial protein synthesis inhibitors. After drug treatment, 10% CCK-8 (Cell Counting Kit-8, Sigma Aldrich) (10 μl per well) of the total volume was added to the cells and incubated for 1-4 h depending on cell lines (1 h for Hela and Hek293; 3 h for Jurkat T cells; 4 h for PBMCs) before the evaluation of the effect of antibiotics on cell viability. […] Results were visually confirmed under the light microscope. Each treatment was performed in technical repeats. Dose-response curves were plotted, mean ± SEM was shown, and half maximal inhibitory concentration (IC50) values were calculated in GraphPad Prism.

Jurkat T cells = experiment: Cell viability assay (CCK-8), Jurkat T cells; format: cell-based, human; details: Jurkat, 72 h, Fig. 1A, in % (unit assumed)
Description: Cells were seeded in 96-well plates ranging from 2000 to 15,000 cells per well depending on different cell lines and treated with antibiotics in serial dilutions for 72 h (120 h for the preliminary assays) in a humidified incubator (37 °C, 5% CO2) in 100 μl medium (DMEM with 10% FBS, 2.05 mM L-glutamine (Sigma) for Hek293 and Hela; RPMI-1640 with 10% FBS, 2.05 mM L-glutamine (Sigma), and 55 μM 2-ME (Gibco) for Jurkat T cells and PBMCs). Based on preliminary tests, the number of cells per well was optimized to 2000 for Hela and Hek293, 6000 for Jurkat T cells, and 15,000 for PBMCs. The stocks of antibiotics were prepared by dissolving in DMSO. As control, the same amount of DMSO was added to the non-treated groups. Serial drug dilutions were prepared in the corresponding medium to provide a total of 9 concentrations up to 300 μM for tetracyclines and up to 900 μM for additional bacterial protein synthesis inhibitors. After drug treatment, 10% CCK-8 (Cell Counting Kit-8, Sigma Aldrich) (10 μl per well) of the total volume was added to the cells and incubated for 1–4 h depending on cell lines (1 h for Hela and Hek293; 3 h for Jurkat T cells; 4 h for PBMCs) before the evaluation of the effect of antibiotics on cell viability. […] Results were visually confirmed under the light microscope. Each treatment was performed in technical repeats. Dose-response curves were plotted, mean ± SEM was shown, and half maximal inhibitory concentration (IC50) values were calculated in GraphPad Prism.

[1] = Homo sapiens, PBMC, dose 1.23457 μM, Fig. 1B, read-out: cell vialibity normalized to Vehicle (DMSO)
[2] = Homo sapiens, PBMC, dose 11.1111 μM, Fig. 1B, read-out: cell vialibity normalized to Vehicle (DMSO)
[3] = Homo sapiens, PBMC, dose 0.411523 μM, Fig. 1B, read-out: cell vialibity normalized to Vehicle (DMSO)
[4] = Homo sapiens, PBMC, dose 300 μM, Fig. 1B, read-out: cell vialibity normalized to Vehicle (DMSO)
[5] = Homo sapiens, PBMC, dose 0.0457247 μM, Fig. 1A, read-out: cell vialibity normalized to Vehicle (DMSO)
[6] = Homo sapiens, PBMC, dose 0.411523 μM, Fig. 1A, read-out: cell vialibity normalized to Vehicle (DMSO)
[7] = Homo sapiens, PBMC, dose 100 μM, Fig. 1A, read-out: cell vialibity normalized to Vehicle (DMSO)

| Compound | viability at 300 µM (PBMCs; [4]) [%] | viability at 0.0457247 µM (PBMCs; [5]) [%] | viability at 100 µM (PBMCs; [7]) [%] | cell vialibity normalized to Vehicle (DMSO) (Jurkat T cells; dose 0.0457247 μM) | cell vialibity normalized to Vehicle (DMSO) (Jurkat T cells; dose 0.137174 μM) | cell vialibity normalized to Vehicle (DMSO) (Jurkat T cells; dose 0.411523 μM) | cell vialibity normalized to Vehicle (DMSO) (Jurkat T cells; dose 1.23457 μM) | cell vialibity normalized to Vehicle (DMSO) (Jurkat T cells; dose 3.7037 μM) | cell vialibity normalized to Vehicle (DMSO) (Jurkat T cells; dose 11.1111 μM) | cell vialibity normalized to Vehicle (DMSO) (Jurkat T cells; dose 33.3333 μM) | cell vialibity normalized to Vehicle (DMSO) (Jurkat T cells; dose 100 μM) | cell vialibity normalized to Vehicle (DMSO) (Jurkat T cells; dose 300 μM) | other results |
| --- | --- | --- | --- | --- | --- | --- | --- | --- | --- | --- | --- | --- | --- |
| CC[C@H]1OC(=O)[C@H](C)[C@@H](O[C@H]2C[C@@](C)(OC)[C@@H](O)[C@H](C)O2)[C@H](C)[C@@H](O[C@@H]2O[C@H](C)C[C@H](N(C)C)[C@H]2O)[C@](C)(O)C[C@@H](C)CN(C)[C@H](C)[C@@H](O)[C@]1(C)O [Azithromycin, azithromycin] |  |  |  |  |  |  |  |  |  |  |  |  | viability at 1.23457 µM (PBMCs; [1]): 91%; viability at 11.1111 µM (PBMCs; [2]): 82% |
| CCC[C@@H]1C[C@@H](C(=O)N[C@@H]([C@H]2O[C@H](SC)[C@H](O)[C@@H](O)[C@H]2O)[C@H](C)Cl)N(C)C1 [Clindamycin, clindamycin] | 63 |  |  |  |  |  |  |  |  |  |  |  | viability at 0.137174 µM (PBMCs; Homo sapiens, PBMC, dose 0.137174 μM, Fig. 1B, read-out: cell vialibity normalized to Vehicle (DMSO)): 97%; viability at 0.411523 µM (PBMCs; [3]): 95.8%; viability at 1.23457 µM (PBMCs; [1]): 92.3%; viability at 11.1111 µM (PBMCs; [2]): 102%; viability at 100 µM (PBMCs; Homo sapiens, PBMC, dose 100 μM, Fig. 1B, read-out: cell vialibity normalized to Vehicle (DMSO)): 94.6% |
| CC(=O)NC[C@H]1CN(c2ccc(N3CCOCC3)c(F)c2)C(=O)O1 [Linezolid, linezolid] | 24.4 |  |  |  |  |  |  |  |  |  |  |  |  |
| C=C1c2cccc(O)c2C(=O)C2=C(O)[C@]3(O)C(=O)C(C(N)=O)=C(O)[C@@H](N(C)C)[C@@H]3[C@@H](O)[C@H]12 [Methacycline, methacycline] |  | 105 | 30 | 104.711 and 102.732 and 106.75 | 102.378 and 109.807 and 118.32 | 103.32 and 108.822 and 104.75 | 108.031 and 101.209 and 106 | 100.628 and 106.046 and 105.75 | 118.035 and 121.182 and 107.162 | 32.5707 and 32.2436 and 34.2424 | 20.0538 and 20.6001 and 28.3196 | 11.2607 and 14.1961 and 17.0248 | viability at 0.411523 µM (PBMCs; [6]): 102% |
| CN(C)c1ccc(O)c2c1C[C@H]1C[C@H]3[C@H](N(C)C)C(O)=C(C(N)=O)C(=O)[C@@]3(O)C(O)=C1C2=O [Minocycline, minocycline] |  | 97.4 | 46.6 | 100.385 and 100.531 and 101.165 |  | 98.2906 and 97.4244 and 90.1654 | 99.8718 and 96.2387 and 90.2372 | 105.513 and 101.758 and 90.3163 | 49.6581 and 44.3173 and 49.0295 | 19.6154 and 18.6836 and 25.6578 | 12.3932 and 10.5887 and 15.9454 | 6.111 and 6.95 and 5.018 | viability at 0.137174 µM (PBMCs; Homo sapiens, PBMC, dose 0.137174 μM, Fig. 1A, read-out: cell vialibity normalized to Vehicle (DMSO)): 98.5%; viability at 0.411523 µM (PBMCs; [6]): 100%; viability at 1.23457 µM (PBMCs; Homo sapiens, PBMC, dose 1.23457 μM, Fig. 1A, read-out: cell vialibity normalized to Vehicle (DMSO)): 95.2%; viability at 3.7037 µM (PBMCs; Homo sapiens, PBMC, dose 3.7037 μM, Fig. 1A, read-out: cell vialibity normalized to Vehicle (DMSO)): 91.6%; viability at 11.1111 µM (PBMCs; Homo sapiens, PBMC, dose 11.1111 μM, Fig. 1A, read-out: cell vialibity normalized to Vehicle (DMSO)): 87.6%; viability at 33.3333 µM (PBMCs; Homo sapiens, PBMC, dose 33.3333 μM, Fig. 1A, read-out: cell vialibity normalized to Vehicle (DMSO)): 81.2% |
| CN(C)[C@@H]1C(O)=C(C(N)=O)C(=O)[C@@]2(O)C(O)=C3C(=O)c4c(O)cccc4[C@@](C)(O)[C@H]3C[C@@H]12 [Tetracycline, tetracycline] |  | 96 | 42.5 | 102.181 and 108.663 and 114.096 | 99.1611 and 103.998 and 102.471 | 100 and 102.207 and 96 | 99.3708 and 109.246 and 98.7059 | 100.377 and 106.955 and 130.118 | 115.478 and 121.824 and 122.353 |  | 13.3809 and 13.536 and 12.3529 |  | viability at 300 µM (PBMCs; Homo sapiens, PBMC, dose 300 μM, Fig. 1A, read-out: cell vialibity normalized to Vehicle (DMSO)): 28.2% |
| C=C[C@]1(C)C[C@@H](OC(=O)CSCCN(CC)CC)[C@]2(C)[C@H](C)CC[C@]3(CCC(=O)[C@H]32)[C@@H](C)[C@@H]1O [Tiamulin, tiamulin] | 7.89 |  |  |  |  |  |  |  |  |  |  |  | viability at 0.411523 µM (PBMCs; [3]): 103%; viability at 900 µM (PBMCs; Homo sapiens, PBMC, dose 900 μM, Fig. 1B, read-out: cell vialibity normalized to Vehicle (DMSO)): 3.99% |
| medocycline |  |  |  | 102.989 and 99.9557 and 109.669 | 102.725 and 107.699 and 114.702 | 103.253 and 102.434 and 102.384 | 99.4725 and 91.8142 and 98.8083 | 86.4176 and 91.8584 and 75.4404 | 52.967 and 57.0354 and 39.5078 | 13.8022 and 14.0708 and 21.114 | 9.495 and 9.425 and 18.7824 | 7.165 and 7.743 and 8.238 | cell vialibity normalized to Vehicle (DMSO) (PBMCs; dose 0.0457247 μM, Fig. 1A): 99.3099 and 104.911 and 97.5874 and 111.701 and 85.5908; cell vialibity normalized to Vehicle (DMSO) (PBMCs; dose 0.137174 μM, Fig. 1A): 96.2044 and 113.924 and 98.007 and 101.337 and 91.5168; cell vialibity normalized to Vehicle (DMSO) (PBMCs; dose 0.411523 μM, Fig. 1A): 87.4466 and 108.341 and 104.406 and 103.147 and 93.157; cell vialibity normalized to Vehicle (DMSO) (PBMCs; dose 1.23457 μM, Fig. 1A): 87.9395 and 106.341 and 92.1504 and 97.7385 and 83.3333; cell vialibity normalized to Vehicle (DMSO) (PBMCs; dose 3.7037 μM, Fig. 1A): 96.5495 and 93.5206 and 91.1364 and 95.1622 and 83.8095; cell vialibity normalized to Vehicle (DMSO) (PBMCs; dose 11.1111 μM, Fig. 1A): 80.6934 and 86.1279 and 92.0804 and 88.6726 and 85.0088; cell vialibity normalized to Vehicle (DMSO) (PBMCs; dose 33.3333 μM, Fig. 1A): 52.5961 and 55.9883 and 48.1294 and 49.4985 and 42.8924; cell vialibity normalized to Vehicle (DMSO) (PBMCs; dose 100 μM, Fig. 1A): 27.933 and 27.6926 and 32.9196 and 27.237 and 25.2205; cell vialibity normalized to Vehicle (DMSO) (PBMCs; dose 300 μM, Fig. 1A): 19.208 and 32.8451 and 31.9056 and 30.1672 and 23.6508 |

Source: paper PMC12045974, “T cell toxicity induced by tigecycline binding to the mitochondrial ribosome” (Nature Communications, 2025)
